The molecules below were run against USP7 (Homo sapiens (Human), UniProt Q93009) (assay: USP7 fluorescence polarisation (FP) biochemical assay, ubiquitin-Lys-TAMRA substrate). Settings: Table 4, biochemical assay; average of at least duplicate experiments; read-out: USP7 IC50.
Procedure, shortened: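 Full-length His6-USP7 (2.5 nM) incubated ± inhibitor (8-point dilutions, 200 to 0.1 μM before addition) in 50 mM HEPES pH 7.2, 150 mM NaCl, 0.5 mM EDTA, 5 mM DTT, 0.05% BSA, 0.05% CHAPS. Ubiquitin-Lys-TAMRA cleavage followed by FP (ex 530/em 575 nm) every 15 min for 1.5 h; normalised to no-compound control.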

Sequence of USP7 (Q93009 whole entry): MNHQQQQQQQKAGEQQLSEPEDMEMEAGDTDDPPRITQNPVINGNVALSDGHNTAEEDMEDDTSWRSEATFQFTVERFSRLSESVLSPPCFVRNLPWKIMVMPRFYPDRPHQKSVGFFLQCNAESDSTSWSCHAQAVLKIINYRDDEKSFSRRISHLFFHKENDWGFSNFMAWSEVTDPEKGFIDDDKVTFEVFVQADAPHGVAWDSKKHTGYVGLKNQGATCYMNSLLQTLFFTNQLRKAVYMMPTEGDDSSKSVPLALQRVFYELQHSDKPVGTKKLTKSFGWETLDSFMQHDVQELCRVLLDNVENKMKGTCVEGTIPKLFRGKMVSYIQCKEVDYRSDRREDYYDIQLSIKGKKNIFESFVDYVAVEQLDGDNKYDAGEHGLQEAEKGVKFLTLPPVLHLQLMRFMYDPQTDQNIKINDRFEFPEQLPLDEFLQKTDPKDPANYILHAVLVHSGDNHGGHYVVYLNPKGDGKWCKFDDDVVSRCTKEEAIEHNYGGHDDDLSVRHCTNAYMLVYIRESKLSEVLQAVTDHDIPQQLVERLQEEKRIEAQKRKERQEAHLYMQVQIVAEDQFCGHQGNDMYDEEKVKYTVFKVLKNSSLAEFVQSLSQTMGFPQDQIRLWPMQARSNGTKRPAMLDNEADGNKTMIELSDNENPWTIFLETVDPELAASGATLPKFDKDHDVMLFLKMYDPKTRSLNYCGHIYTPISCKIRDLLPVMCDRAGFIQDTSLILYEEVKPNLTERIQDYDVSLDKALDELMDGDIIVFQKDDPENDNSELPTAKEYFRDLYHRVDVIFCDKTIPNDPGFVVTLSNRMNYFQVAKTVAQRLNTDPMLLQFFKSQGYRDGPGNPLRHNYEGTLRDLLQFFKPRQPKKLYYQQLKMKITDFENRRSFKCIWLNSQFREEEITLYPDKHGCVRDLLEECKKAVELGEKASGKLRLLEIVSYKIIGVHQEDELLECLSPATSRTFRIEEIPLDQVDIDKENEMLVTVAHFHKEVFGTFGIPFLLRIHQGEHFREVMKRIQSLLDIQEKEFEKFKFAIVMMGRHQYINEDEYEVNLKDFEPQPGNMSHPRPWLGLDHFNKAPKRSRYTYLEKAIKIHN

IC50 [nM] | Compound
250 to 999 | Cn1cc(C(=O)N2CCC(O)(Cn3cnc4c(cc(Cl)n4-c4ccccc4)c3=O)CC2)cn1 [Example 216, 6-Chloro-3-((4-hydroxy-1-(1-methyl-1H-pyrazole-4-carbonyl)piperidin-4-yl)methyl)-7-phenyl-3H-pyrrolo[2,3-d]pyrimidin-4(7H)-one]
< 250 | NCc1ccc(-n2cnc3c(=O)n(CC4(O)CCN(C(=O)C[C@H](c5ccccc5)C(F)(F)F)CC4)cnc32)cc1 [Example 77, (R)-9-(4-(Aminomethyl)phenyl)-1-((4-hydroxy-1-(4,4,4-trifluoro-3-phenylbutanoyl)piperidin-4-yl)methyl)-1H-purin-6(9H)-one]
< 250 | Cn1nc2c(=O)n(CC3(O)CCN(C(=O)CC(C4CC4)C4CC4)CC3)cnc2c1-c1ccc(CN)cc1 [Example 127, 3-(4-(Aminomethyl)phenyl)-6-((1-(3,3-dicyclopropylpropanoyl)-4-hydroxypiperidin-4-yl)methyl)-2-methyl-2H-pyrazolo[4,3-d]pyrimidin-7(6H)-one]
1000 to 200000 | Cc1nc2c(=O)n(CC3(O)CCN(C(=O)c4cnc(C5CC5)o4)CC3)cnc2n1-c1ccccc1 [Example 195, 1-((1-(2-Cyclopropyloxazole-5-carbonyl)-4-hydroxypiperidin-4-yl)methyl)-8-methyl-9-phenyl-1H-purin-6(9H)-one]
1000 to 200000 | CC1(C(=O)N2CCC(O)(Cn3cnc4c(nnn4-c4ccccc4)c3=O)CC2)CC1 [Example 197, 6-((4-Hydroxy-1-(1-methylcyclopropanecarbonyl)piperidin-4-yl)methyl)-3-phenyl-3H-[1,2,3]triazolo[4,5-d]pyrimidin-7(6H)-one]
< 250 | COc1ccc(-n2c(Cl)cc3c(=O)n(CC4(O)CCN(C(=O)C5(C)CC5)CC4)cnc32)cc1OC [Example 239, 6-Chloro-7-(3,4-dimethoxyphenyl)-3-((4-hydroxy-1-(1-methylcyclopropane-1-carbonyl)piperidin-4-yl)methyl)-3,7-dihydro-4H-pyrrolo[2,3-d]pyrimidin-4-one]
1000 to 200000 | C[C@H](CC(=O)N1CCC(O)(Cn2cnc(N[C@@H](Cc3ccccc3)CN3CCCC3)cc2=O)CC1)c1ccccc1 [Example 57, 3-((4-Hydroxy-1-((R)-3-phenylbutanoyl)piperidin-4-yl)methyl)-6-(((S)-1-phenyl-3-(pyrrolidin-1-yl)propan-2-yl)amino)pyrimidin-4(3H)-one, Formic Acid]
< 250 | C[C@H](CC(=O)N1CCC(O)(Cn2cnc(N3CC[C@H](N)C3)cc2=O)CC1)c1ccccc1 [Example 12, 6-((S)-3-Aminopyrrolidin-1-yl)-3-((4-hydroxy-1-((R)-3-phenylbutanoyl)piperidin-4-yl)methyl)pyrimidin-4(3H)-one]
250 to 999 | Cn1nc2c(=O)n(CC3(O)CCN(C(=O)c4cnc(C5CC5)o4)CC3)cnc2c1-c1ccc(CN)cc1 [Example 238, 3-(4-(Aminomethyl)phenyl)-6-((1-(2-cyclopropyloxazole-5-carbonyl)-4-hydroxypiperidin-4-yl)methyl)-2-methyl-2,6-dihydro-7H-pyrazolo[4,3-d]pyrimidin-7-one]
1000 to 200000 | C[C@H](CC(=O)N1CCC(O)(Cn2cnc(N3CCOCC3)cc2=O)CC1)c1ccccc1 [Example 100, (R)-3-((4-Hydroxy-1-(3-phenylbutanoyl)piperidin-4-yl)methyl)-6-morpholinopyrimidin-4(3H)-one]
1000 to 200000 | CC(=O)NCCNc1cc(=O)n(CC2(O)CCN(C(=O)C[C@@H](C)c3ccccc3)CC2)cn1 [Example 143, (R)-N-(2-((1-((4-hydroxy-1-(3-phenylbutanoyl)piperidin-4-yl)methyl)-6-oxo-1,6-dihydropyrimidin-4-yl)amino)ethyl)acetamide]
< 250 | C[C@H](CC(=O)N1CCC(O)(Cn2cnc(NCCN3CCCCC3)cc2=O)CC1)c1ccccc1 [Example 52, (R)-3-((4-Hydroxy-1-(3-phenylbutanoyl)piperidin-4-yl)methyl)-6-((2-(piperidin-1-yl)ethyl)amino)pyrimidin-4(3H)-one]
< 250 | Cn1nc2c(=O)n(CC3(O)CCN(C(=O)C[C@H](c4ccccc4)C(F)(F)F)CC3)cnc2c1C1=CCCCC1 [Example 134, (R)-3-(Cyclohex-1-en-1-yl)-6-((4-hydroxy-1-(4,4,4-trifluoro-3-phenylbutanoyl)piperidin-4-yl)methyl)-2-methyl-2H-pyrazolo[4,3-d]pyrimidin-7(6H)-one]
1000 to 200000 | C[C@H](CC(=O)N1CCC(O)(Cn2cnc(-c3ccncc3)cc2=O)CC1)c1ccccc1 [Example 2, (R)-3-((4-Hydroxy-1-(3-phenylbutanoyl)piperidin-4-yl)methyl)-6-(pyridin-4-yl)pyrimidin-4(3H)-one]
250 to 999 | COc1cc(-n2c(Cl)cc3c(=O)n(CC4(O)CCN(C(=O)C5(C)CC5)CC4)cnc32)ccc1F [Example 207, 6-Chloro-7-(4-fluoro-3-methoxyphenyl)-3-((4-hydroxy-1-(1-methylcyclopropanecarbonyl)piperidin-4-yl)methyl)-3H-pyrrolo[2,3-d]pyrimidin-4(7H)-one]
1000 to 200000 | C[C@H](CC(=O)N1CCC(O)(Cn2cnc(N3CCC4(CC3)COC4)cc2=O)CC1)c1ccccc1 [Example 175, (R)-3-((4-hydroxy-1-(3-phenylbutanoyl)piperidin-4-yl)methyl)-6-(2-oxa-7-azaspiro[3.5]nonan-7-yl)pyrimidin-4(3H)-one]
< 250 | Cn1cc(C(=O)N2CCC(O)(Cn3cnc4c(cc(Cl)n4-c4cccc(C5CC5)c4)c3=O)CC2)cn1 [Example 219, 6-Chloro-7-(3-cyclopropylphenyl)-3-((4-hydroxy-1-(1-methyl-1H-pyrazole-4-carbonyl)piperidin-4-yl)methyl)-3H-pyrrolo[2,3-d]pyrimidin-4(7H)-one]
1000 to 200000 | Cn1nc2c(=O)n(CC3(O)CCN(C(=O)c4cnco4)CC3)cnc2c1-c1ccccc1 [Example 192, 6-((4-Hydroxy-1-(oxazole-5-carbonyl)piperidin-4-yl)methyl)-2-methyl-3-phenyl-2H-pyrazolo[4,3-d]pyrimidin-7(6H)-one]

Same assay, conditions: USP7 IC50, Table 4, biochemical assay; average of at least duplicate experiments

IC50 [nM] | Compound
250 to 999 | CC(=O)N1CC2(C1)CN(c1cc(=O)n(CC3(O)CCN(C(=O)C[C@@H](C)c4ccccc4)CC3)cn1)C2 [Example 172, (R)-6-(6-acetyl-2,6-diazaspiro[3.3]heptan-2-yl)-3-((4-hydroxy-1-(3-phenylbutanoyl)piperidin-4-yl)methyl)pyrimidin-4(3H)-one]
250 to 999 | C[C@H](CC(=O)N1CCC(O)(Cn2cnc(-c3ccn[nH]3)cc2=O)CC1)c1ccccc1 [Example 3, (R)-3-((4-Hydroxy-1-(3-phenylbutanoyl)piperidin-4-yl)methyl)-6-(1H-pyrazol-5-yl)pyrimidin-4(3H)-one]
250 to 999 | CC(C)NCCNc1cc(=O)n(CC2(O)CCN(C(=O)C[C@@H](C)c3ccccc3)CC2)cn1 [Example 142, (R)-3-((4-hydroxy-1-(3-phenylbutanoyl)piperidin-4-yl)methyl)-6-((2-(isopropylamino)ethyl)amino)pyrimidin-4(3H)-one]

Compound | IC50 [nM]
C[C@H](CC(=O)N1CCC(O)(Cn2cnc(N[C@@H](C)CN3CCCC3)cc2=O)CC1)c1ccccc1 [Example 61, 3-((4-Hydroxy-1-((R)-3-phenylbutanoyl)piperidin-4-yl)methyl)-6-(((S)-1-(pyrrolidin-1-yl)propan-2-yl)amino)pyrimidin-4(3H)-one, Formic Acid] | 250 to 999

From patent publication US10766903B2 (ALMAC DISCOVERY LIMITED, priority 2016, dated 2020)
